Patent publication US20060104978A1, “Methods and compositions for PDGF-C activation and inhibition” (LUDWIG INSTITUTE FOR CANCER RESEARCH, priority 2003, published 2006)

Experiments:
latent PDGF-DD = latent PDGF-DD (Homo sapiens, UniProt Q9GZP0); test: Cotransfection assay in COS-1 cells: protease plus full-length PDGF-D; assay type: cell-based; parameters: cotransfected with full-length PDGF-C (Li et al, 2000), full-length PDGF-D (Bergsten et al, 2001); expressed in transfected cells; host or cells: COS-1 cells; details: COS-1 conditioned medium, immunoblot
Text: A cotransfection assay was established to identify serine proteases able to cleave and activate latent PDGF-CC. Expression plasmids encoding the relevant enzymes and full-length PDGF-C were cotransfected into COS-1 cells, and aliquots of the conditioned media from the transfectants were subjected to SDS-PAGE and immunoblotting using antibodies to the growth factor domain of PDGF-C. […] As a specificity control, the ability of tPA and NT to use full-length PDGF-DD as the substrate in the cotransfection assay was analysed. […] One difference in the latter results, as compared with the results from the cotransfection assay, was that purified tPA generated a second intermediate species of 32 kDa using latent PDGF-CC as the substrate. […]
To test the endogenous expression of PDGF-CC, subconfluent AG1523 cells and primary fibroblast cultures were cultured in serum-free DMEM overnight. […] In the case of the primary cultures, total protein concentration was measured and normalized (Bradford, 1976). […] PDGF-C and PDGF-D were detected by immunoblotting using affinity-purified polyclonal rabbit antibodies against PDGF-C (Li et al, 2000) and PDGF-D (Bergsten et al, 2001), respectively. The His6-tagged proteins were detected using an anti-His monoclonal antibody (C-terminal, Invitrogen). tPA was detected using sheep polyclonal antibodies against human tPA (ab9030, Abcam).

[1] = system: tPA-deficient fibroblasts; test: WST-1 growth assay of primary fibroblasts in serum-free medium; assay type: cell-based, mouse; details: 50 ng/ml added to serum-free culture medium, 24 hours
Experimental: It was observed that primary fibroblasts derived from tPA-deficient mice grew more slowly in culture than fibroblasts derived from wild-type animals, raising the possibility that activation of latent PDGF-CC by tPA generated autocrine and paracrine growth stimulatory loops for primary fibroblasts in culture. To analyze this effect, isolated wild-type and tPA-deficient fibroblasts were serum-starved overnight, and the growth of the cells during the next 24 hours was monitored using an enzyme-based viability assay (see Example 8, Materials and Methods).
(§1) To monitor cell growth, both the cell proliferation reagent WST-1 (Roche) and BrdU (Sigma) were used. A total of 0.4×10^4 (WST-1) or 1×10^4 (BrdU) wild-type and tPA-deficient fibroblasts were seeded in triplicate-hexaplicate, and after attachment they were serum-starved overnight. Serum-starved cells were counted (WST-1 seeding control) and alternatively incubated for 24 hours in serum-free medium supplemented with 1 mg/ml BSA, and 50 μM BrdU in the BrdU experiment, in the absence or presence of 50 ng/ml activated PDGF-CC or tPA protein (#116, American Diagnostica Inc.). Upon counting, WST-1 reagent was added and measured according to the manufacturer's protocol using an ELISA reader. […] Quantification of the BrdU-positive cells was performed by counting all cells along the vertical and horizontal diameters of all wells.

[2] = system: wild-type and tPA-deficient fibroblasts; test: BrdU incorporation in primary fibroblasts; assay type: cell-based, mouse; details: 50 ng/ml, 24 hours BrdU labeling
Experimental: Cell nuclei were visualized with 4′,6-diamidine-2′-phenylindole dihydrochloride (DAPI), and BrdU-labeled cells were determined by immunofluorescence using antibodies to BrdU (FIG. 7B).
as §1, with “reader. In the BrdU experiment, the cells were fixed in 4% paraformaldehyde in PBS for 30 min at room temperature and the DNA was denatured in 2M HCl for 20 min at room temperature and then blocked in 0.5% BSA, 0.5% Tween, and 10% goat serum in PBS.” for “reader.”

Question: Which results are given for “tPA: tissue plasminogen activator, secreted serine protease; expressed, purified from human melanoma cells or recombinant”?
Answer: cleavage and activation of latent PDGF-DD by the coexpressed protease (latent PDGF-DD): neither of the two enzymes was able to cleave and activate latent PDGF-DD; rescue of growth of tPA-deficient fibroblasts [1]: allowed the cells to grow similar to the wild-type fibroblasts; BrdU incorporation in tPA-deficient cells ([2]; serum-starved tPA-deficient fibroblasts): strongly stimulated BrdU incorporation in the tPA-deficient cells; BrdU incorporation in wild-type cells ([2]; serum-starved wild-type fibroblasts): had less effect on wild-type cells
